Test results: patent US12257264B2, “Combination therapy for HIV with adenosine derivative and capsid inhibitors” (Brii Biosciences, Inc., priority 2021, dated 2025)

Test: Plasma exposures following IV infusion alone or in combination to Sprague-Dawley rats
Details: for concentration at 0.25 h: 0.250 hrs; for concentration at 0.5 h: 0.500 hrs
Method: The pharmacokinetics of EFdA and prodrug formula 4-A, as well as lenacapavir were studied in rats after IV infusion administration alone or in combination at a dose of 1.0 mg/kg each.
Formulations: The prodrugs and lenacapavir were formulated alone or in combination as solutions at 1.0 mg/mL each in 20% […], 10% Solutol aqueous solution within 0.5 hour prior to dose.
Dose Administration and Sample Collection: The in-life phase of this study was conducted at the WuXi Apptec (WuXi) at Shanghai, China in accordance with the WuXi Institutional Animal Care and Use Committee (IACUC) standard animal procedures along with the IACUC guidelines that are in compliance with the Animal Welfare Act, the Guide for the Care and Use of Laboratory Animals. and was approved by the IACUA Committee. Male Sprague-Dawley rats (0.262+/−0.019 kg) were used for the studies. Each drug was administered as a single dose by 30-min IV infusion (1 ml/kg) alone or in combination. Plasma samples were collected at 0 (pre-dose), 5, 10, 15 and 30 min, 1, 2, 4, 7, 12 and 24 h post-dose. Blood (approximately 0.1 mL) was processed immediately for plasma by centrifugation at 3,200 g at 4° C. for 10 min within half an hour of collection. Plasma samples were frozen and maintained at −70° C. until analyzed. To stabilize the prodrug at the sample collection and subsequent analysis, the following stabilizing reagents were added to the blood collection K2EDTA tubes on wet ice prior to sample collection: for each 100 mL of blood, 10 mL of premade inhibitor cocktail consists of 600 mM Citric Acid, 400 mM PMSF, 400 mM NaF, and 400 mM Dichlorvos.
Determination of EFdA and Prodrugs in plasma: Briefly, plasma (20 μL) was mixed with 100 l acetonitrile to precipitate protein. Consistent with sample collection procedure, the same cocktail protocol was also added to stabilize the prodrug in the standard and QC samples.
Bioanalysis: A Sciex API-6500 Plus triplequadrupole mass spectrometer coupled with a Waters Acquity UPLC system (Framingham, MA 01701) was used for quantitative analysis of plasma samples. The column was a Waters HSS T3 column (2.1×50 mm, 1.8 micrometer). The mobile phases used were: A, 0.1% formic acid in water; B, 0.1% formic acid in acetonitrile. For the analysis of EFdA and prodrugs in plasma, the flow rate was 0.6 mL/min with a total run time of 2.0 min. […] Detection of the prodrug and EFdA were achieved using positive ion electrospray mass spectroscopic mode using unit resolution mode. Multiple reaction monitoring (MRM) modes were used to quantify both prodrug and EFdA, e.g. the MRM transition for EFdA was 294.0-154.2 Da, and the transition for prodrug 4-A was 449.3-164.9 Da. For the analysis of lenacapavir in plasma, the flow rate was 0.7 mL/min with a total run time of 1.5 min. The HPLC gradient was initiated at 95% A/5% B for 0.50 min, followed by linear gradient increase to […] over the next 0.2 min; the gradient was subsequently maintained at 100% of mobile B over the next 0.7 min before ramping down to 95% mobile phase A within the following 0.1 min. Detection of lenacapavir was achieved using positive ion electrospray mass spectroscopic mode using unit resolution mode. Multiple reaction monitoring (MRM) modes were used to quantify lenacapavir, e.g. the MRM transition for lenacapavir was 968.1-869.4 Da. Peak areas were integrated by the Sciex program Analyst®, version 1.6.3, operating on a Windows 7 computer where concentrations were determined by a weighted (1/x2) linear regression of peak area ratios (peak area of EFdA/peak area of corresponding IS) versus the nominal concentrations of the plasma calibration standards. Calculations were performed on unrounded numbers. Overall, Analyst® determined the precision and accuracy for the calibration standards and QC samples.

[1] = male, Sprague-Dawley, rat, in vivo, 1 mg/kg, Lenacapavir Concentrations in Rat Plasma When Dosed Alone, Lenacapavir IV infusion 1.0 mg/kg alone, individual animals
[2] = male, Sprague-Dawley, rat, in vivo, 1 mg/kg, Lenacapavir Concentrations in Rat Plasma When Dosed Alone, Lenacapavir IV infusion 1.0 mg/kg alone, Mean
[3] = male, Sprague-Dawley, rat, in vivo, Lenacapavir Concentrations in Rat Plasma When Dosed with Prodrug formula 4-A, Lenacapavir IV infusion 1.0 mg/kg with Prodrug formula 4-A, Mean
[4] = male, Sprague-Dawley, rat, in vivo, iv, 1 mg/kg

- concentration at 0.25 h [1]: 796 ng/mL
- concentration at 0.5 h [2]: 789 ng/mL
- concentration at 0.5 h [1]: 980 ng/mL
- concentration at 1 h [2]: 222 ng/mL
- concentration at 1 h [1]: 261 ng/mL
- concentration at 2 h [2]: 150 ng/mL
- concentration at 2 h [1]: 181 ng/mL
- concentration at 4 h [2]: 156 ng/mL
- concentration at 4 h [1]: 171 ng/mL
- concentration at 7 h [2]: 138 ng/mL
- concentration at 12 h [2]: 117 ng/mL
- concentration at 12 h [1]: 145 ng/mL
- concentration at 24 h [2]: 136 ng/mL
- concentration at 24 h [1]: 141 ng/mL
- concentration at 72 h [2]: 69.6 ng/mL
- concentration at 0.083 h (male, Sprague-Dawley, rat, in vivo, Lenacapavir Concentrations in Rat Plasma When Dosed with Prodrug formula 4-A, Lenacapavir IV infusion 1.0 mg/kg with Prodrug formula 4-A, 0.0830 hrs, Mean): 413 ng/mL
- concentration at 0.167 h (male, Sprague-Dawley, rat, in vivo, Lenacapavir Concentrations in Rat Plasma When Dosed with Prodrug formula 4-A, Lenacapavir IV infusion 1.0 mg/kg with Prodrug formula 4-A, 0.167 hrs, Mean): 507 ng/mL
- concentration at 0.25 h [3]: 590 ng/mL
- concentration at 0.5 h [3]: 645 ng/mL
- concentration at 1 h [3]: 162 ng/mL
- concentration at 2 h [3]: 127 ng/mL
- concentration at 4 h [3]: 93.5 ng/mL
- concentration at 7 h [3]: 93 ng/mL
- concentration at 12 h [3]: 128 ng/mL
- concentration at 24 h [3]: 133 ng/mL
- concentration at 72 h [3]: 83.3 ng/mL
- AUC [4]: 7980 ng·h/mL
- Cmax [4]: 903 ng/mL
- Pharmacokinetic profile of lenacapavir on co-administration of prodrugs, e.g. formula 4-A (rats, IV infusion): not affected
Compound: CC(C)(C#Cc1ccc(-c2ccc(Cl)c3c(NS(C)(=O)=O)nn(CC(F)(F)F)c23)c([C@H](Cc2cc(F)cc(F)c2)NC(=O)Cn2nc(C(F)(F)F)c3c2C(F)(F)[C@@H]2C[C@H]32)n1)S(C)(=O)=O [Lenacapavir, reference compound]
